Structures can show the parent of a compound that is named as a salt. Activity calls are given as the source filed them. The calls are words filed in the database; no cut-off is given here.
Assays:
[1] = tested on: DLD-1; assay: cells; assay type: functional, cell-based; conditions: Homo sapiens, DLD-1, 24 h
Description: Anticancer activity against human DLD-1 cells assessed as cell growth inhibition measured after 24 hrs by MTT assay

[2] = tested on: DNA; assay: Binding affinity to DNA (unknown origin) at 0.1 to 0.2 mM by agarose gel electrophoresis; assay type: nucleic-acid assay; conditions: dose mM 0.1-0.2
[3] = tested on: HepG2; assay: cells; assay type: functional, cell-based; conditions: Homo sapiens, HepG2, 24 h
Description: Anticancer activity against human HepG2 cells assessed as cell growth inhibition measured after 24 hrs by MTT assay

[4] = tested on: PC-3; assay: cells; assay type: functional, cell-based; conditions: Homo sapiens, PC-3, 24 h
Description: Anticancer activity against human PC-3 cells assessed as cell growth inhibition measured after 24 hrs by MTT assay

[5] = tested on: MCF7; assay: cells; assay type: functional, cell-based; conditions: Homo sapiens, MCF7, 24 h
Description: Anticancer activity against human MCF7 cells assessed as cell growth inhibition measured after 24 hrs by MTT assay

[6] = tested on: HEK293; assay: cells; assay type: ADME, cell-based; conditions: Homo sapiens, HEK293, 24 h
Description: Cytotoxicity against HEK293 cells assessed as cell growth inhibition measured after 24 hrs by MTT assay

[7] = tested on: MDA-MB-231; assay: cells; assay type: functional, cell-based; conditions: Homo sapiens, MDA-MB-231, 24 h
Description: Anticancer activity against human MDA-MB-231 cells assessed as cell growth inhibition measured after 24 hrs by MTT assay

[8] = tested on: A549; assay: cells; assay type: functional, cell-based; conditions: Homo sapiens, A549, 24 h
Description: Anticancer activity against human A549 cells assessed as cell growth inhibition measured after 24 hrs by MTT assay

[9] = tested on: DU-145; assay: cells; assay type: functional, cell-based; conditions: Homo sapiens, DU-145, 24 h
Description: Anticancer activity against human DU-145 cells assessed as cell growth inhibition measured after 24 hrs by MTT assay

[10] = molecular target: Tubulin (Homo sapiens) (UniProt P68371+Q9H4B7+P0DPH7+P68366+Q13509+Q71U36+P04350+Q3ZCM7+P07437+P68363+Q9BQE3+Q6PEY2+Q13885+Q9BVA1+Q9BUF5); assay: Inhibition of tubulin (unknown origin) polymerization assessed as stabilization of microtubules at10 uM measured up to 60 mins in presence of GTP; assay type: protein-complex assay; conditions: dose 10.0 µM, time min <=60
[11] = tested on: MDA-MB-231; assay: Induction of mitochondrial membrane depolarization in human MDA-MB-231 cells at 10 uM measured after 24 hrs by JC-1 staining based flow cytometry analysis (reference value: 0.89 to 3.24 %); assay type: functional

| SMILES | IC50 [1] | Activity [2] | IC50 [3] | IC50 [4] | IC50 [5] | IC50 [7] | IC50 [8] | IC50 [9] | Activity [10] | IC50 [6] | Activity [11] |
| --- | --- | --- | --- | --- | --- | --- | --- | --- | --- | --- | --- |
| C=CCn1c2cc(OC)c(OC)cc2c2cc(C)c3c(c21)C=CC(C)(C)O3 | 75.3 µM |  | 42.9 µM | > 100 µM | > 100 µM | 36.5 µM | > 100 µM | > 100 µM |  | > 100 µM |  |
| COc1cc2c3cc(C=O)c4c(c3n(Cc3cccc(Cl)c3)c2cc1OC)C=CC(C)(C)O4 | > 100 µM |  | > 100 µM | 70.5 µM | 72.4 µM | > 100 µM | > 100 µM | > 100 µM |  |  |  |
| CC(=O)O[C@H]1C(=O)[C@@]2(C)[C@H]([C@H](OC(=O)c3ccccc3)[C@]3(O)C[C@H](OC(=O)[C@H](O)[C@@H](NC(=O)c4ccccc4)c4ccccc4)C(C)=C1C3(C)C)[C@]1(OC(C)=O)CO[C@@H]1C[C@@H]2O |  |  |  |  |  |  |  |  | Active |  |  |
| COc1cc2[nH]c3c4c(c(C=O)cc3c2cc1OC)OC(C)(C)C=C4 | > 100 µM |  | 35.5 µM | 27.3 µM | > 100 µM | 8.3 µM | 33.6 µM | 70 µM |  | > 100 µM |  |
| N#CC(C#N)=NNc1cccc(Cl)c1 [CARBONYL CYANIDE M-CHLOROPHENYLHYDRAZONE] |  |  |  |  |  |  |  |  |  |  | 12.75% |
| COc1ccc2c(c1)c1cc(C)c3c(c1n2Cc1ccccc1Br)C=CC(C)(C)O3 | > 100 µM |  | 16 µM | 15.2 µM | 59.1 µM | > 100 µM | 56.5 µM | > 100 µM |  | > 100 µM |  |
| COc1cccc(Cn2c3cc(OC)c(OC)cc3c3cc(C)c4c(c32)C=CC(C)(C)O4)c1 | 56.1 µM |  | 41.8 µM | 20 µM | 65.6 µM | 33.4 µM | 29.1 µM | > 100 µM |  |  |  |
| COc1ccc2c(c1)c1cc(C=O)c3c(c1n2Cc1ccccc1)C=CC(C)(C)O3 | > 100 µM |  | 42.4 µM | 32.9 µM | 32.8 µM | 30.7 µM | 36.6 µM | > 100 µM |  |  |  |
| CC/C(=C(\c1ccccc1)c1ccc(OCCN(C)C)cc1)c1ccccc1 [TAMOXIFEN CITRATE] |  |  |  | 11.7 µM | 6.2 µM | 12.8 µM |  | 11.2 µM |  | 27.3 µM |  |
| COc1ccc2c(c1)c1cc(C)c3c(c1n2Cc1cccc(C)c1)C=CC(C)(C)O3 | 73.1 µM |  | 34.6 µM | 35.5 µM | 48.2 µM | 46.5 µM | 35.7 µM | 55.7 µM |  | > 100 µM |  |
| C#CCn1c2cc(OC)c(OC)cc2c2cc(C)c3c(c21)C=CC(C)(C)O3 | > 100 µM |  | 38.8 µM | 76.1 µM | > 100 µM | 9.7 µM | 51.5 µM | > 100 µM |  | > 100 µM |  |
| COc1cc2c3cc(C)c4c(c3n(Cc3cccc(C)c3)c2cc1OC)C=CC(C)(C)O4 | 73.4 µM |  | 9.6 µM | 14.1 µM | 64.9 µM | 28 µM | 96.6 µM | > 100 µM |  | > 100 µM |  |
| COc1cccc(Cn2c3cc(OC)c(OC)cc3c3cc(C=O)c4c(c32)C=CC(C)(C)O4)c1 | > 100 µM |  | > 100 µM | 77.2 µM | > 100 µM | > 100 µM | > 100 µM | > 100 µM |  |  |  |

Continued, in another order:

| IC50 [1] | Activity [2] | IC50 [3] | IC50 [4] | IC50 [5] | IC50 [7] | IC50 [8] | IC50 [9] | Activity [10] | SMILES | IC50 [6] | Activity [11] |
| --- | --- | --- | --- | --- | --- | --- | --- | --- | --- | --- | --- |
| 10.2 µM | Active | 8 µM |  |  |  |  |  |  | COc1cccc2c1C(=O)c1c(O)c3c(c(O)c1C2=O)C[C@@](O)(C(=O)CO)C[C@@H]3O[C@H]1C[C@H](N)[C@H](O)[C@H](C)O1 [DOXORUBICIN] |  |  |
| 54.2 µM |  | 9.1 µM | 33.1 µM | 51.8 µM | > 100 µM | 53.3 µM | > 100 µM |  | COc1ccc2c(c1)c1cc(C)c3c(c1n2Cc1cc(F)ccc1F)C=CC(C)(C)O3 | > 100 µM |  |
| 8.5 µM |  | 15.5 µM | 9.6 µM | 44.9 µM | 4.4 µM | 71.7 µM | 47.6 µM |  | COc1cc2c3cc(C)c4c(c3n(C/C(I)=C\I)c2cc1OC)C=CC(C)(C)O4 | > 100 µM |  |
| 52.8 µM |  | 41.8 µM | 74.9 µM | > 100 µM | 46.5 µM | 64 µM | > 100 µM |  | COc1ccc2c(c1)c1cc(C)c3c(c1n2Cc1ccccc1)C=CC(C)(C)O3 | > 100 µM |  |
| 34.1 µM |  | 36.8 µM | 13.3 µM | > 100 µM | 23.2 µM | 88 µM | > 100 µM |  | COc1ccc2c(c1)c1cc(C)c3c(c1n2Cc1ccc(F)cc1F)C=CC(C)(C)O3 | > 100 µM |  |
| 54.7 µM |  | 33.3 µM | 56.4 µM | 3.9 µM | 2.6 µM | > 100 µM | > 100 µM |  | COc1ccc2[nH]c3c4c(c(C=O)cc3c2c1)OC(C)(C)C=C4 [CLAULANSINE F] | 2.5 µM |  |
| 35.4 µM |  | 33.8 µM | 7.4 µM | 29.4 µM | 19.7 µM | 14.8 µM | > 100 µM |  | COc1cc2c3cc(C)c4c(c3n(Cc3cc(Cl)ccc3Cl)c2cc1OC)C=CC(C)(C)O4 |  |  |
| 35.9 µM |  | 8.2 µM | 9.3 µM | 70.7 µM | 36.7 µM | 24.4 µM | 36.6 µM |  | COc1cc2c3cc(C)c4c(c3n(Cc3ccccc3Br)c2cc1OC)C=CC(C)(C)O4 | > 100 µM |  |
| 50.1 µM |  | > 100 µM | > 100 µM | > 100 µM | 52.4 µM | > 100 µM | > 100 µM |  | C#CCn1c2ccc(OC)cc2c2cc(C)c3c(c21)C=CC(C)(C)O3 | > 100 µM |  |
| 42.1 µM |  | 47.1 µM | 29.2 µM | 71.9 µM | 28.5 µM | 80.1 µM | > 100 µM |  | COc1cc2c3cc(C)c4c(c3n(Cc3ccccc3)c2cc1OC)C=CC(C)(C)O4 | > 100 µM |  |
